# From patent US4129737A, “Process for the preparation of an 8-alkyl-5-oxo-5,8-dihydro-pyrido(2,3-d)pyrimidine-6-carboxylic acid” (priority 1972, dated 1978)
# Like-named read-outs stand apart in the source and are kept apart here.
# Assays:
# Type in all cases: cell-based
# Staphylococcus 209 P = assay: Minimum inhibitory concentration by agar dilution, Staphylococcus 209 P; settings: Staphylococcus, 37° C., 18 hours, read-out: minimum inhibitory concentration (M.I.C.)
# Method: (§1) (a) Trypticase soya medium (T.S.A.), which is very suitable for culturing the majority of microorganisms; it has the following composition:
# (§2) (b) Ordinarily nutrient agar (N.A.), which is less rich in nutrients, corresponds to the following formulation: […]
# (§3) Table I gives the minimum inhibitory concentrations (expressed in μg/cm^3) for the various microorganisms tested on each medium.
# (§4) The products were tested on three Gram positive microorganisms (1 to 3) […] and on 10 Gram negative microorganisms (4 to 13).
# (§5) Table (II) gives the minimum inhibitory concentrations of the compounds of Examples XII to XVI, determined on the agar medium, N.A., and expressed in μg/cm^3.
# Streptococcus = assay: Minimum inhibitory concentration by agar dilution, Streptococcus Group A
# Method: as §1, §2, §3, §4, §5
# B. subtilis = assay: Minimum inhibitory concentration by agar dilution, B. subtilis; settings: Bacillus subtilis, 37° C., 18 hours, read-out: minimum inhibitory concentration (M.I.C.)
# Method: as §1, §2, §3, §4, §5
# Bord. bronchiseptica = assay: Minimum inhibitory concentration by agar dilution, Bord. bronchiseptica; settings: Bordetella bronchiseptica, 37° C., 18 hours, read-out: minimum inhibitory concentration (M.I.C.)
# Method: as §1, §2, §3, §4, §5
# B. pyocyaneus A22 = assay: Minimum inhibitory concentration by agar dilution, B. pyocyaneus A22; settings: Pseudomonas aeruginosa, A22, 37° C., 18 hours, read-out: minimum inhibitory concentration (M.I.C.)
# Method: as §1, §2, §3, §4, §5
# B. pyocyaneus TUR = assay: Minimum inhibitory concentration by agar dilution, B. pyocyaneus TUR; settings: Pseudomonas aeruginosa, 37° C., 18 hours
# Method: as §1, §2, §3, §4
# Esch. Coli 95 = assay: Minimum inhibitory concentration by agar dilution, Esch. Coli 95; settings: Escherichia coli
# Method: as §1, §2, §3, §4, §5
# Klebs. pneumoniae = assay: Minimum inhibitory concentration by agar dilution, Klebs. pneumoniae; settings: Klebsiella pneumoniae, 37° C., 18 hours, read-out: minimum inhibitory concentration (M.I.C.)
# Method: as §1, §2, §3, §4, §5
# Salm. typhi = assay: Minimum inhibitory concentration by agar dilution, Salm. typhi; settings: Salmonella enterica, 18 h
# Method: as §1, §2, §3, §4, §5
# Sh. sonnei = assay: Minimum inhibitory concentration by agar dilution, Sh. sonnei; settings: Shigella sonnei, 37° C., 18 hours, read-out: minimum inhibitory concentration (M.I.C.)
# Method: as §1, §2, §3, §4, §5
# Pr. vulgaris = assay: Minimum inhibitory concentration by agar dilution, Pr. vulgaris; settings: Proteus vulgaris
# Method: as §1, §2, §3, §4, §5
# Pr. mirabilis = assay: Minimum inhibitory concentration by agar dilution, Pr. mirabilis; settings: Proteus mirabilis
# Method: as §1, §2, §3, §4, §5
# Pr. morganii = assay: Minimum inhibitory concentration by agar dilution, Pr. morganii; settings: Morganella morganii
# Method: as §1, §2, §3, §4, §5
# [1] = test system: Gram-negative microorganisms; assay: In vitro anti-microbial activity on agar media, overall; settings: in vitro
# Method: as §4
# [2] = N.A. (nutrient agar, pH 6.8), Table I
# [3] = T.S.A. (trypticase soya medium, pH 7.3)
# [4] = N.A. (nutrient agar, pH 6.8), 37° C., 18 hours, Table I, read-out: minimum inhibitory concentration (M.I.C.)
# [5] = T.S.A. (trypticase soya medium, pH 7.3), 37° C., 18 hours, read-out: minimum inhibitory concentration (M.I.C.)
# [6] = T.S.A. (trypticase soya medium, pH 7.3), read-out: minimum inhibitory concentration (M.I.C.)
# [7] = 18 h, pH 7.3, read-out: minimum inhibitory concentration (M.I.C.)
# [8] = pH 6.8, read-out: minimum inhibitory concentration (M.I.C.)
# [9] = pH 7.3, read-out: minimum inhibitory concentration (M.I.C.)
# [10] = 18 h, pH 6.8, read-out: minimum inhibitory concentration (M.I.C.)
SMILES,MIC (Staphylococcus 209 P; [2]),MIC (Staphylococcus 209 P; [3]),MIC (Streptococcus; [4]),MIC (B. subtilis; [2]),MIC (B. subtilis; [3]),MIC (Bord. bronchiseptica; [2]),MIC (Bord. bronchiseptica; [3]),MIC (B. pyocyaneus A22; [2]),MIC (B. pyocyaneus A22; [3]),MIC (B. pyocyaneus TUR; [2]),MIC (B. pyocyaneus TUR; [6]),MIC (Esch. Coli 95; [4]),MIC (Klebs. pneumoniae; [2]),MIC (Klebs. pneumoniae; [3]),MIC (Salm. typhi; [8]),MIC (Salm. typhi; [9]),MIC (Sh. sonnei; [2]),MIC (Sh. sonnei; [3]),MIC (Pr. morganii; [4]),activity against Gram-negative microorganisms [1],other results
"CCn1cc(C(=O)O)c(=O)c2cnc(N3CCN(Cc4ccccc4)CC3)nc21 [Example VII, 2-(4'-Benzyl-piperazino)-5-oxo-8-ethyl-5,8-dihydropyrido(2,3-d)pyrimidine-6-carboxylic acid]",0.8 µg/mL,3.1 µg/mL,0.8 µg/mL,0.4 µg/mL,0.8 µg/mL,3.1 µg/mL,> 100 µg/mL,100 µg/mL,> 100 µg/mL,100 µg/mL,> 100 µg/mL,1.6 µg/mL,0.4 µg/mL,1.6 µg/mL,1.6 µg/mL,12.5 µg/mL,1.6 µg/mL,12.5 µg/mL,3.1 µg/mL,particularly active against Gram-negative microorganisms,MIC (Streptococcus; [5]): 3.1 µg/mL; MIC (Esch. Coli 95; [7]): 12.5 µg/mL; MIC (Pr. vulgaris; [10]): 12.5 µg/mL; MIC (Pr. vulgaris; [5]): 50 µg/mL; MIC (Pr. mirabilis; [4]): 6.2 µg/mL; MIC (Pr. mirabilis; [5]): 100 µg/mL; MIC (Pr. morganii; [7]): 12.5 µg/mL
"CN1CCN(c2ncc3c(=O)c(C(=O)O)cn(C)c3n2)CC1 [Example X, 2-(4'-Methyl-piperazino)-5-oxo-8-methyl-5,8-dihydropyrido-(2,3-d)pyrimidine-6-carboxylic acid]",50 µg/mL,100 µg/mL,50 µg/mL,100 µg/mL,> 100 µg/mL,25 µg/mL,100 µg/mL,50 µg/mL,> 100 µg/mL,50 µg/mL,> 100 µg/mL,1.6 µg/mL,6.2 µg/mL,6.2 µg/mL,3.1 µg/mL,12.5 µg/mL,12.5 µg/mL,3.1 µg/mL,3.1 µg/mL,particularly active against Gram-negative microorganisms,MIC (Streptococcus; [5]): 100 µg/mL; MIC (Esch. Coli 95; [5]): 6.2 µg/mL; MIC (Pr. vulgaris; [4]): 3.1 µg/mL; MIC (Pr. vulgaris; [5]): 25 µg/mL; MIC (Pr. mirabilis; [7]): 12.5 µg/mL; MIC (Pr. mirabilis; [4]): 3.1 µg/mL; MIC (Pr. morganii; [5]): 6.2 µg/mL
"CCn1cc(C(=O)O)c(=O)c2cnc(N3CCC(O)CC3)nc21 [IV, 2-(4'-Hydroxy-piperidino)-5-oxo-8-ethyl-5,8-dihydropyrido(2,3-d)pyrimidine-6-carboxylic acid]",1.6 µg/mL,50 µg/mL,–,0.8 µg/mL,3.1 µg/mL,100 µg/mL,> 100 µg/mL,100 µg/mL,> 100 µg/mL,100 µg/mL,> 100 µg/mL,6.2 µg/mL,0.4 µg/mL,0.8 µg/mL,6.2 µg/mL,12.5 µg/mL,3.1 µg/mL,12.5 µg/mL,0.4 µg/mL,particularly active against Gram-negative microorganisms,MIC (Streptococcus; [10]): 12.5 µg/mL; MIC (Streptococcus; [7]): 12.5 µg/mL; MIC (Esch. Coli 95; [7]): 12.5 µg/mL; MIC (Pr. vulgaris; [7]): 12.5 µg/mL; MIC (Pr. vulgaris; [4]): 3.1 µg/mL; MIC (Pr. mirabilis; [10]): 12.5 µg/mL; MIC (Pr. mirabilis; [5]): 25 µg/mL; MIC (Pr. morganii; [5]): 0.8 µg/mL
